Data published in US20220346381A1, “COMPOSITION FOR PREVENTING THE FORMATION OF SEEDS IN FRUIT” (ASOCIACION CLUB DE VARIEDADES VEGETALES PROTEGIDAS, priority 2019, published 2022).
Values joined by “and” are separate entries in the source; they are usually repeats but may differ in a detail not shown here. Equal entries are not always repeated. “Also recorded” adds a separate entry of the source.

Key:
[1] = tested on: stigma papilla cells of mandarin flower; assay: Microscopy of stigma treated with sulphur only or gibberellic acid only; assay type: in vivo; details: for state of stigma papilla cells (semi-thin cut): mandarin stigma treated with a single component only; for pollen tubes in the stigma of pollinated mandarin flower (fluorescence microscope): treated with a single component only
Excerpt: The active ingredient sulphur, preferably in the form of an octatomic molecule (S8), is responsible for preventing the formation of seeds through the alteration of papilla cells of the stigma, whilst the GA is responsible for re-establishing the stimuli needed for the formation of the fruit, thus preventing a possible reduction in yield. The need for GA will depend on each crop and its parthenocarpic capacity. […] This mechanism is substantially due to the effect of sulphur. […] The effect of the active ingredient (sulphur) and gibberellic acid (GA) on papilla cells can be compared separately in FIGS. 6 and 7 through semi-thin microscope cuts.

mandarin = details: literature [1,2]; cited from earlier work
[2] = purified powder; cited from earlier work
[3] = tested on: Nadorcott variety (mandarin); assay: Treatment of entire trees, number of seeds in the fruit; assay type: in vivo
grapes Vitis vinifera L. = assay: Treatment of individual pollinated flowers, pollen tubes in the stigma by fluorescence microscopy; assay type: in vivo
Procedure: (§1) Flower: treatment on individual flowers and microscopic observation of fluorescence. In this case the presence or absence of pollen tubes (PT) in the stigma was assessed as was their percentage reduction compared to positive controls. […] C+=Positive control=flower pollinated but NOT treated with the active product; PT=Pollen tubes (fluorescent fibres); AP=Active product.

[4] = tested on: cucumber fruit Cucumis sativus L.; assay: Treatment of individual flowers, observation of the fruit formed (seeds); assay type: in vivo; details: scale Fruit
Excerpt: (§2) Fruit: treatment of individual flowers and subsequent observation of the fruit formed from the treated flower. […] C+=Positive control=flower pollinated but NOT treated with the active product; PT=Pollen tubes (fluorescent fibres); AP=Active product.

[5] = tested on: aubergines Solanum melongena L.; assay: Treatment of individual flowers, fruit seeds and pollen tubes in the stigma; assay type: in vivo
Excerpt: as §2

[6] = tested on: watermelons Citrullus lanatus (Thunb.) Matsum. & Nakai; assay: Treatment of individual flowers, pollen tubes in the stigma; assay type: in vivo
Procedure: as §1, with “controls. Fruit: treatment of individual flowers and subsequent observation of the fruit formed from the treated flower.” for “controls.”

Mexican lime = assay: Treatment of individual pollinated flowers, pollen tubes in the stigma; assay type: in vivo
Procedure: as §1

[7] = tested on: Murcott Citrus reticulata White; assay: as above; assay type: in vivo
Procedure: as §1

Nadorcott (mandarin) [8] = assay: as above; assay type: in vivo
Procedure: as §1

[9] = tested on: Nova. C. clementine x [C.paradisi x C.tangerina]; assay: as above; assay type: in vivo
Procedure: as §1

[10] = tested on: clementine fina Citrus clementine hort. Ex Tanaka; assay: as above; assay type: in vivo
Procedure: as §1

[11] = tested on: clemenules Citrus clementine hort. Ex Tanaka; assay: as above; assay type: in vivo
Procedure: as §1

[12] = tested on: lemons Citrus limon L. Burm. f.; assay: as above; assay type: in vivo
Procedure: as §1

Nadorcott (mandarin) [13] = assay: Field treatment by tractor on entire rows of adult trees, seeds; assay type: in vivo; details: scale Field
Excerpt: Field: treatments by tractor on entire rows of adult trees.

Sweet orange = assay: Treatment of individual pollinated flowers, pollen tubes in the stigma; assay type: in vivo, orange tree
Procedure: as §1

Grapefruit = assay: as above; assay type: in vivo, grapefruit tree
Procedure: as §1

[14] = tested on: flowers of the Nadorcott mandarin; assay: Action over time, pre-pollination treatment of flowers, seeds in fruit; assay type: in vivo; details: flowers treated, then pollinated D0 to D9; positive control 4.67 seeds
Procedure: (§3) In order to study the action over time of the product, two experiments were carried out on the flowers of the Nadorcott mandarin, one pre-pollination and the other post-pollination. In the pre-pollination experiment 300 flowers were treated with the product of the invention (S8) and subsequently pollinated in batches. One batch was pollinated on the same day (D0) and another batch the following day (D1), and so on successively until D9.

[15] = tested on: flowers of the Nadorcott mandarin; assay: Action over time, post-pollination treatment of flowers, seeds in fruit; assay type: in vivo
Procedure: as §3, with “D9. In the post-pollination experiment 360 flowers were first pollinated. In this case, after first having been pollinated a batch was treated with the product on the same day (D0), another batch the following day (D1) and so on successively until day 9 (D9).” for “D9.”

pollen grains = assay: Germination of pollen grains on Petri dishes; assay type: cell-based; details: assessed after 72 hours
Procedure: The action of the product on the germination of pollen grains was studied. To that end, pollen grains were sown on Petri dishes in laboratory conditions to which growing medium increasing concentrations of the active product (S8) were added. After 72 hours they were assessed and the number of germinated pollen grains were counted on each Petri dish.
A non-toxic, neutral product (sample), KNO3 was used for comparing the results with those obtained from the active product (AP).

[16] = tested on: adult trees of the Nadorcott mandarin variety; assay: Phyto-toxicity on sprayed adult trees (chlorosis, necrosis, defoliation); assay type: in vivo; details: recommended concentrations (below 4%); listed as active product
Procedure: Phyto-toxicity tests were performed on adult trees of the Nadorcott mandarin variety. The trees were sprayed with different concentrations of the active product (S8). The level of affection on chlorosis, necrosis and defoliation was assessed, on a scale of 1 to 6, with 1 being very low and 6 being very high.

[17] = tested on: common bumblebee (Bombus sp.); assay: Effects on pollinators, laboratory mortality test; assay type: in vivo; details: for toxicity classification for bumblebees / pollinators: international scale: non-toxic = acute LD50 >100 μg/bee

C=C1C[C@]23C[C@@]1(O)CC[C@H]2[C@@]12C=C[C@H](O)[C@@](C)(C(=O)O1)[C@H]2[C@@H]3C(=O)O [GA, gibberellic acid, reference compound]
state of stigma papilla cells (semi-thin cut) [1]: intact, functional and turgid | state of stigma papilla cells (semi-thin cut) ([1]; listed as gibberellic acid): good, functional and turgid | pollen tubes in the stigma of pollinated mandarin flower (fluorescence microscope) [1]: developed pollen tubes can be clearly observed | pollen tubes in the stigma of pollinated mandarin flower (fluorescence microscope) ([1]; listed as gibberellic acid): presence of pollen tubes inside the stigma can be clearly seen | effectiveness for reducing the number of seeds in real field conditions (in words) (mandarin): not effective for reducing the number of seeds | solubility in ethanol [2]: soluble in ethanol | solubility in water [2]: somewhat soluble in water

S1SSSSSSS1 [(S8), sulphur (S) as an octatomic molecule (S8)]
red. of seeds ([3]; Nadorcott, scale Tree): ~85% | reduction of the average number of seeds compared to the positive control (in words) ([3]; entire Nadorcott trees, six experimental products compared): only one to significantly reduce the average number of seeds | mean number of seeds in the fruit ([3]; entire Nadorcott trees, about 120 fruits per treatment, positive control C+ 3.3, listed as T1): 0.4 and 0.4083 | red. of PT (grapes Vitis vinifera L.; Vid, scale Flower, vs positive control): =100% red. of PT (FIG. 9A and 9B) | pollen tubes in treated stigma (fluorescence image) (grapes Vitis vinifera L.; grape, pollinated flower): without PT | red. seeds [4]: =100% red. seeds (FIG. 10A and 10B) | red. seeds ([5]; Aubergine, scale Fruit): =100% red. seeds (FIG. 11A and 11B) | pollen tubes in treated stigma (fluorescence image) ([5]; aubergine): without PT | red. of PT ([6]; Watermelon, scale printed Fruit): =100% red. of PT (FIG. 12A and 12B) | pollen tubes in treated stigma (fluorescence image) ([6]; watermelon): without PT | pollen tubes in treated pollinated flowers (fluorescence image) (Mexican lime): No visible PT | red. of PT (Mexican lime; scale Flower): =100% red. of PT (FIG. 20) | pollen tubes in treated stigma (fluorescence image) [7]: without PT | red. of PT ([7]; scale Flower): =100% red. of PT (FIG. 15A and 15B) | red. of PT (Nadorcott (mandarin) [8]; Nadorcott, scale Flower): =100% red. of PT | efficiencies when applied directly on the flower (Nadorcott (mandarin) [8]; direct application on the flower): 95-100% | pollen tubes in treated stigma (fluorescence image) ([9]; Nova): without PT | red. of PT ([9]; Nova (tangelo), scale Flower): =100% red. of PT (FIG. 16A and 16B) | red. of PT ([10]; Fina, scale Flower): =100% red. of PT (FIG. 14A and 14B) | pollen tubes in treated stigma (fluorescence image) ([10]; clementine fina): without PT | red. of PT ([11]; Clemenules, scale Flower): =100% red. of PT (FIG. 13A and 13B) | pollen tubes in treated stigma (fluorescence image) ([11]; clemenules): without PT | red. of PT ([12]; Lemon, scale Flower): =100% red. of PT (FIG. 17A and 17B) | pollen tubes in treated stigma (fluorescence image) ([12]; lemon): without PT | red. of seeds (Nadorcott (mandarin) [13]): =81% red. of seeds | red. of PT (Sweet orange; Sweet orange, scale Flower): =100% red. of PT (FIG. 18) | pollen tubes in treated pollinated flowers (fluorescence image) (Sweet orange; orange tree): No visible PT | red. of PT (Grapefruit; Grapefruit, scale Flower): =100% red. of PT (FIG. 19) | pollen tubes in treated pollinated flowers (fluorescence image) (Grapefruit; grapefruit tree): No visible PT | seeds in fruit after pre-pollination treatment [14]: did not present a single seed | seeds prevented, post-pollination treatment ([15]; treated D0 to D3 after pollination, positive control 4.7 seeds): 100% | seeds prevented, post-pollination treatment ([15]; treated D4-D9 after pollination): approximately 50% | concentration at which inhibition of pollen grain germination is total (pollen grains): 2000 mg/L | phyto-toxicity (chlorosis, necrosis, defoliation) [16]: does not produce necrosis, chlorosis or defoliation; also recorded: not phyto-toxic | mortality rate ([17]; bumblebees, at 48 h): 50% | toxicity classification for bumblebees / pollinators ([17]; listed as active ingredient): non-toxic | toxicity classification for bumblebees / pollinators ([17]; listed as active product): non-toxic for pollinator insects | state of stigma papilla cell (TEM) ([1]; TEM, crop not stated): lost turgidity and part of its components and appears collapsed | state of stigma papilla cells (semi-thin cut) [1]: damaged | state of stigma papilla cells (semi-thin cut) ([1]; listed as active ingredient (sulphur)): damaged stigma, without turgidity | pollen tubes in the stigma of pollinated mandarin flower (fluorescence microscope) ([1]; listed as active ingredient (S8)): without pollen tubes; also recorded: no pollen tubes in the stigmatic area

O=[N+]([O-])[O-].[K+] [Treatment T3, potassium nitrate, reference compound]
mean number of seeds in the fruit ([3]; in vivo): 3.333

OC[C@H]1O[C@@](CO)(O[C@H]2O[C@H](CO)[C@@H](O)[C@H](O)[C@H]2O)[C@@H](O)[C@@H]1O [Treatment T6, sucrose, reference compound]
mean number of seeds in the fruit ([3]; entire Nadorcott trees, about 120 fruits per treatment, positive control C+ 3.3): 3.183
